Laboratory results: US8785452B2, “Anti-infective compounds” (priority 2008, dated 2014)
Where two headings read alike, the source gives them in different places.

Tested on: M. tuberculosis H37Rv-GFP
Assay: microbe, parasite or virus in culture
Format: cell-based, Mycobacterium tuberculosis
Details: Mycobacterium tuberculosis, H37RV, Macrophage
[1] = confirmation, 20 uM, intracellular, read-out: QIM Confirm % Inhibition 20 uM
[2] = primary screen, 20 μM, intracellular, read-out: Primary QIM % Inhibition
[3] = read-out: Primary QIM % Inhibition
[4] = read-out: QIM Confirm % Inhibition 20 uM

| SMILES | inhibition at 20 µM [1] | inhibition at 20 µM [2] | inhibition at 20 µM [3] | inhibition at 20 µM [4] |
| --- | --- | --- | --- | --- |
| CCOc1ncccc1C(=O)N/N=C/c1ccc([N+](=O)[O-])o1 [IPK 000 148 65] | 29.1% | 41.2% | – | – |
| Cc1c(Cl)cccc1/N=C/c1ccc([N+](=O)[O-])o1 [IPK 000 167 54] | 16.5% | 19.5% | – | – |
| CCC(=O)Nc1ccc(-c2csc(N/N=C/c3ccc(SC)cc3)n2)cc1 [IPK 000 163 27] | 17.9% | 69.5% | – | – |
| COc1ccc(/C=C2/c3ccccc3-c3ccc(C(=O)CCCCN4CCCCC4)cc32)cc1 [IPK 000 198 56] | 64.7% | 15.1% | – | – |
| O=C(NCCC1=CCCCC1)c1ccc(Br)o1 [IPK 000 184 56] | 72.7% | 85.1% | – | – |
| COc1cc2ccccc2cc1C(=O)Nc1nccs1 [IPK 000 133 02] | 37.2% | -44.8% | – | – |
| COc1cccc(C(CC(=O)c2ccc(Cl)cc2)C(C#N)C#N)c1 (centres unmarked) [IPK 000 130 54] | 65.8% | 66.7% | – | – |
| Cc1ccc(NC(=O)c2ccc(CSC3=NCCS3)cc2)c(C)c1 [IPK 000 125 15] | 88.7% | 87.1% | – | – |
| CC1=NN(c2ccc([N+](=O)[O-])cc2)C(=O)/C1=N/Nc1c(Cl)cc([N+](=O)[O-])cc1Cl [IPK 000 179 49] | – | – | 65.7% | 78.5% |
| C=CCc1ccc(OCC(=O)N/N=C/c2ccc([N+](=O)[O-])o2)c(OC)c1 [IPK 000 148 44] | 8.2% | -15.1% | – | – |
| O=C(N/N=C/c1c(Cl)cccc1Cl)c1ccncc1 [IPK 000 170 33] | 96.3% | 49.5% | – | – |
| COc1ccc(/C=N/Nc2nc(-c3ccc(NC(C)=O)cc3)cs2)cc1 [IPK 000 163 52] | 70.7% | 86.2% | – | – |
| O=[N+]([O-])c1ccc(NNc2ccccc2)c([N+](=O)[O-])c1 [IPK 000 171 46] | – | – | 24.3% | 72.1% |
| O=[N+]([O-])c1ccc(/C=N/c2ccccc2O)s1 [IPK 000 169 76] | 16.7% | -71.9% | – | – |
| O=C(NC1CCCCCC1)c1cc([N+](=O)[O-])cc([N+](=O)[O-])c1 [IPK 000 046 83] | – | – | 75.8% | 61.7% |
| COc1ccccc1N1CCN(C(=O)c2ccc([N+](=O)[O-])o2)CC1 [IPK 000 235 12] | 26.9% | -67.9% | – | – |
| O=C(Nc1ccc(Br)c(Cl)c1)c1cccs1 [IPK 000 169 42] | 76.9% | -64% | – | – |

| SMILES | inhibition at 20 µM [1] | inhibition at 20 µM [2] | inhibition at 20 µM [3] | inhibition at 20 µM [4] |
| --- | --- | --- | --- | --- |
| O=C(CCCCC1=CCCS1)Nc1ccc(C(F)(F)F)cc1 [IPK 000 148 64] | 71.4% | 72.5% | – | – |
| CCC1=NN(C(=O)c2ccncc2)C(O)(C(F)(F)F)C1 (centres unmarked) [IPK 000 134 50] | 101% | 99.7% | – | – |
| O=[N+]([O-])c1ccc(Cl)c(/C=N/c2ccccc2O)c1 [IPK 000 169 68] | -5.3% | -5% | – | – |
| O=C(Nc1ccc(Cl)c(Cl)c1)c1ccc(Cn2cc(Cl)cn2)cc1 [IPK 000 180 16] | 69.8% | 46.1% | – | – |
| O=C(Nc1ccc(NC(=O)c2cccnc2)cc1)C1=CCCS1 [IPK 000 199 70] | 69.6% | 70.5% | – | – |
| Cc1noc(NS(=O)(=O)c2ccc(N)cc2)c1C [IPK 000 254 12] | 13.2% | 30.3% | – | – |
| C/C(=N\NC(=O)c1ccccc1)c1ccc2ccccc2c1 [IPK 000 139 17] | 65.8% | 72.9% | – | – |
| CC(NC(=O)c1cc([N+](=O)[O-])cc([N+](=O)[O-])c1)c1ccccc1 (centres unmarked) [IPK 000 046 80] | – | – | 76.9% | 64.6% |
| CS(=O)(=O)c1nc(-c2ccc(Br)cc2)n[nH]1 [IPK 000 134 62] | 25.5% | -56.1% | – | – |
| c1cc2c3c(cccc3c1)NC1(CCCCCC1)N2 [IPK 000 141 61] | 50.8% | 4.2% | – | – |
| COc1cc(/C=N/NC(=O)c2ccncc2)cc(Br)c1OCc1ccccc1Cl [IPK 000 157 51] | 46.2% | 96% | – | – |
| O=C(N/N=C/c1ccccc1)c1ccncc1 [IPK 000 219 27] | 57.4% | 96.9% | – | – |
| CC(C)(C)c1ccc(-c2nc(Oc3ccc(O)cc3)c3ccccc3n2)cc1 [IPK 000 142 18] | 79.4% | 73.2% | – | – |
| Cc1ccsc1/C=C/c1ccccc1O [IPK 000 179 05] | 16.6% | -31.7% | – | – |
| O=C(COc1ccccc1)N/N=C/c1ccc([N+](=O)[O-])o1 [IPK 000 149 78] | 3.6% | 15.2% | – | – |
| Cc1ccsc1/C=N/NC(=O)Cc1cc(=O)[nH][nH]1 [IPK 000 219 30] | 93% | 104% | – | – |
| CSc1ccc(/C=N/c2ccccc2O)cc1 [IPK 000 169 96] | 14.7% | -50.2% | – | – |
